#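 Assay format: 96-well plates, 48-hour exposure. Here, GI50 denotes the concentration required for 50% inhibition of growth. TGI is the concentration that stops growth completely.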
# Columns and labels:
# Assay in all cases: NCI tumour cell line growth inhibition, 48 h
# OVCAR-4 ovarian = tested on: OVCAR-4 ovarian
# SNB-75 CNS = tested on: SNB-75 CNS
# SF-268 CNS = tested on: SF-268 CNS
# RXF 393 renal = tested on: RXF 393 renal
# A549 NSCLC = tested on: A549 NSCLC
# A498 renal = tested on: A498 renal
# UACC-257 melanoma = tested on: UACC-257 melanoma
# MOLT-4 leukemia = tested on: MOLT-4 leukemia
# SK-MEL-2 melanoma = tested on: SK-MEL-2 melanoma
# HL-60(TB) leukemia = tested on: HL-60(TB) leukemia
# NCI/ADR-RES ovarian = tested on: NCI/ADR-RES ovarian
# OVCAR-8 ovarian = tested on: OVCAR-8 ovarian
# MALME-3M melanoma = tested on: MALME-3M melanoma
# MDA-MB-231 breast = tested on: MDA-MB-231 breast
# HT29 colon = tested on: HT29 colon
# KM12 colon = tested on: KM12 colon
# T-47D breast = tested on: T-47D breast
# K-562 leukemia = tested on: K-562 leukemia
# OVCAR-5 ovarian = tested on: OVCAR-5 ovarian
# SR leukemia = tested on: SR leukemia
# CCRF-CEM leukemia = tested on: CCRF-CEM leukemia
# ACHN renal = tested on: ACHN renal
# EKVX NSCLC = tested on: EKVX NSCLC
# NCI-H226 lung = tested on: NCI-H226 lung
# TK-10 renal = tested on: TK-10 renal
# SF-295 CNS = tested on: SF-295 CNS
# MCF7 breast = tested on: MCF7 breast
# HS 578T breast = tested on: HS 578T breast
# HCT-15 colon = tested on: HCT-15 colon
# HCT-116 colon = tested on: HCT-116 colon
# BT-549 breast = tested on: BT-549 breast
# OVCAR-3 ovarian = tested on: OVCAR-3 ovarian
# U251 CNS = tested on: U251 CNS
# RPMI-8226 leukemia = tested on: RPMI-8226 leukemia
# SF-539 CNS = tested on: SF-539 CNS
# SK-MEL-5 melanoma = tested on: SK-MEL-5 melanoma
# DU-145 prostate = tested on: DU-145 prostate
# SW-620 colon = tested on: SW-620 colon
# 786-0 renal = tested on: 786-0 renal
# MDA-MB-435 = tested on: MDA-MB-435
# NCI-H522 lung = tested on: NCI-H522 lung
# PC-3 prostate = tested on: PC-3 prostate
# NCI-H23 lung = tested on: NCI-H23 lung
# UACC-62 melanoma = tested on: UACC-62 melanoma
# SNB-19 CNS = tested on: SNB-19 CNS
# NCI-H460 lung = tested on: NCI-H460 lung
# LOX IMVI melanoma = tested on: LOX IMVI melanoma
# SN12C renal = tested on: SN12C renal
# HCC-2998 colon = tested on: HCC-2998 colon
# HOP-92 NSCLC = tested on: HOP-92 NSCLC
# UO-31 renal = tested on: UO-31 renal
# M14 melanoma = tested on: M14 melanoma
# SK-OV-3 ovarian = tested on: SK-OV-3 ovarian
# IGROV1 ovarian = tested on: IGROV1 ovarian
# COLO 205 colon = tested on: COLO 205 colon
# SK-MEL-28 melanoma = tested on: SK-MEL-28 melanoma
# CAKI-1 renal = tested on: CAKI-1 renal
# HOP-62 NSCLC = tested on: HOP-62 NSCLC
smiles,measurement,setting,value
Cc1nc2sccn2c(=O)c1CCN1CCC(=C(c2ccc(F)cc2)c2ccc(F)cc2)CC1,GI50,OVCAR-4 ovarian,12.6 µM
same,TGI,OVCAR-4 ovarian,27.9 µM
same,GI50,SNB-75 CNS,14.5 µM
same,TGI,SNB-75 CNS,28.7 µM
same,GI50,SF-268 CNS,15.9 µM
same,TGI,SF-268 CNS,32.8 µM
same,GI50,RXF 393 renal,11.3 µM
same,TGI,RXF 393 renal,26.9 µM
same,GI50,A549 NSCLC,12.9 µM
same,TGI,A549 NSCLC,29.1 µM
same,GI50,A498 renal,15.3 µM
same,TGI,A498 renal,29.4 µM
same,GI50,UACC-257 melanoma,9.2 µM
same,TGI,UACC-257 melanoma,21.9 µM
same,GI50,MOLT-4 leukemia,8.52 µM
same,TGI,MOLT-4 leukemia,29.9 µM
same,GI50,SK-MEL-2 melanoma,16.8 µM
same,TGI,SK-MEL-2 melanoma,32.2 µM
same,GI50,HL-60(TB) leukemia,5.92 µM
same,TGI,HL-60(TB) leukemia,26.5 µM
same,GI50,NCI/ADR-RES ovarian,13.8 µM
same,TGI,NCI/ADR-RES ovarian,32.9 µM
same,GI50,OVCAR-8 ovarian,17 µM
same,TGI,OVCAR-8 ovarian,41 µM
same,GI50,MALME-3M melanoma,11.4 µM
same,TGI,MALME-3M melanoma,25.5 µM
same,GI50,MDA-MB-231 breast,15.2 µM
same,TGI,MDA-MB-231 breast,31.9 µM
same,GI50,HT29 colon,5.37 µM
same,TGI,HT29 colon,19 µM
same,GI50,KM12 colon,12.2 µM
same,TGI,KM12 colon,27.4 µM
same,GI50,T-47D breast,11.7 µM
same,TGI,T-47D breast,28.9 µM
same,GI50,K-562 leukemia,5.18 µM
same,TGI,K-562 leukemia,26.2 µM
same,GI50,OVCAR-5 ovarian,15.2 µM
same,TGI,OVCAR-5 ovarian,29.4 µM
same,GI50,SR leukemia,0.551 µM
same,TGI,SR leukemia,26.7 µM
same,GI50,CCRF-CEM leukemia,0.559 µM
same,TGI,CCRF-CEM leukemia,26.3 µM
same,GI50,ACHN renal,13.4 µM
same,TGI,ACHN renal,26.3 µM
same,GI50,EKVX NSCLC,10.7 µM
same,TGI,EKVX NSCLC,24.1 µM
same,GI50,NCI-H226 lung,15.3 µM
same,TGI,NCI-H226 lung,41 µM
same,GI50,TK-10 renal,13.9 µM
same,TGI,TK-10 renal,27.6 µM
same,GI50,SF-295 CNS,13 µM
same,TGI,SF-295 CNS,28.7 µM
same,GI50,MCF7 breast,6.88 µM
same,TGI,MCF7 breast,23 µM
same,GI50,HS 578T breast,16.3 µM
same,TGI,HS 578T breast,43.3 µM
same,GI50,HCT-15 colon,4.53 µM
same,TGI,HCT-15 colon,17.5 µM
same,GI50,HCT-116 colon,5.36 µM
same,TGI,HCT-116 colon,20.3 µM
same,GI50,BT-549 breast,9.38 µM
same,TGI,BT-549 breast,24.5 µM
same,GI50,OVCAR-3 ovarian,12.8 µM
same,TGI,OVCAR-3 ovarian,27.2 µM
same,GI50,U251 CNS,10.5 µM
same,TGI,U251 CNS,23.7 µM
same,GI50,RPMI-8226 leukemia,3.78 µM
same,TGI,RPMI-8226 leukemia,25.2 µM
same,GI50,SF-539 CNS,15 µM
same,TGI,SF-539 CNS,28.9 µM
same,GI50,SK-MEL-5 melanoma,4.01 µM
same,TGI,SK-MEL-5 melanoma,15 µM
same,GI50,DU-145 prostate,15.7 µM
same,TGI,DU-145 prostate,30.4 µM
same,GI50,SW-620 colon,10.9 µM
same,TGI,SW-620 colon,24.1 µM
same,GI50,786-0 renal,12 µM
same,TGI,786-0 renal,27.8 µM
same,GI50,MDA-MB-435,14.2 µM
same,TGI,MDA-MB-435,28.2 µM
same,GI50,NCI-H522 lung,11.1 µM
same,TGI,NCI-H522 lung,25.7 µM
same,GI50,PC-3 prostate,4.81 µM
same,TGI,PC-3 prostate,19.3 µM
same,GI50,NCI-H23 lung,13.2 µM
same,TGI,NCI-H23 lung,29 µM
same,GI50,UACC-62 melanoma,6.73 µM
same,TGI,UACC-62 melanoma,20.5 µM
same,GI50,SNB-19 CNS,16 µM
same,TGI,SNB-19 CNS,30.3 µM
same,GI50,NCI-H460 lung,7.49 µM
same,TGI,NCI-H460 lung,22.7 µM
same,GI50,LOX IMVI melanoma,8.18 µM
same,TGI,LOX IMVI melanoma,22.9 µM
same,GI50,SN12C renal,14.5 µM
same,TGI,SN12C renal,29.3 µM
same,GI50,HCC-2998 colon,12.3 µM
same,TGI,HCC-2998 colon,27.5 µM
same,GI50,HOP-92 NSCLC,5.16 µM
same,TGI,HOP-92 NSCLC,19.2 µM
same,GI50,UO-31 renal,4.06 µM
same,TGI,UO-31 renal,18.8 µM
same,GI50,M14 melanoma,9.53 µM
same,TGI,M14 melanoma,24.8 µM
same,GI50,SK-OV-3 ovarian,16.3 µM
same,TGI,SK-OV-3 ovarian,30.7 µM
same,GI50,IGROV1 ovarian,9.96 µM
same,TGI,IGROV1 ovarian,26.4 µM
same,GI50,COLO 205 colon,7.69 µM
same,TGI,COLO 205 colon,24.1 µM
same,GI50,SK-MEL-28 melanoma,13.4 µM
same,TGI,SK-MEL-28 melanoma,26.9 µM
same,GI50,CAKI-1 renal,12.9 µM
same,TGI,CAKI-1 renal,25.7 µM
same,GI50,HOP-62 NSCLC,17.9 µM
same,TGI,HOP-62 NSCLC,33.4 µM

# From PubChem BioAssay (NCI)
